Literature values, collected in patent US20210220286A1, “PHARMACEUTICAL COMPOSITION COMPRISING AMORPHOUS SUNITINIB” (SYNTHON B.V., priority 2018, published 2021).

Settings: WO03016305, cited from earlier work; for stability of polymorphic form: ambient conditions

| SMILES | stability of polymorphic form | hygroscopicity of polymorphic form | solubility of polymorphic form (compared with form I) |
| --- | --- | --- | --- |
| CCN(CC)CCNC(=O)c1c(C)[nH]c(/C=C2\C(=O)Nc3ccc(F)cc32)c1C [Form I, sunitinib L-malate] | most stable form |  |  |
| CCN(CC)CCNC(=O)c1c(C)[nH]c(/C=C2\C(=O)Nc3ccc(F)cc32)c1C [Form II, sunitinib L-malate] | less stable | hygroscopic | more soluble |
